This is an account of results in patent publication US20250206754A1, “PAN-CHEMOKINE ANTAGONISTS FOR USE IN TREATING CANCER AND IMMUNE DISORDERS” ("Micar Innovation" LTD., priority 2022, published 2025).

For test [1], the target named is T1, CCR7 (Homo sapiens, UniProt P32248).
T1 construct: expressed in transfected cells
T1 sequence (P32248 25-378): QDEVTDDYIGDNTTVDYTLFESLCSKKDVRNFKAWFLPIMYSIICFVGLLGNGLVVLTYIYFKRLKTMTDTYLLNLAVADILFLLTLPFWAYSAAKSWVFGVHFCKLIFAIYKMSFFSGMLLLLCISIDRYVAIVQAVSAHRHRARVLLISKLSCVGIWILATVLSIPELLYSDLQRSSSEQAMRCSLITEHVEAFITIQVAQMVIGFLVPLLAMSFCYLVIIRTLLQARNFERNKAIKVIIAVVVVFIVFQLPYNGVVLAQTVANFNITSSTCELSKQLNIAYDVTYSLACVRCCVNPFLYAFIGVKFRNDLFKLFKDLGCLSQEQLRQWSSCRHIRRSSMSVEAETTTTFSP
Put plainly: GTPγS assay, CCR7. In kind it is biochemical. As for the experimental part: The Kb values are also retrieved. […] Finally, to make it more clear the second messenger output for Hit1 and confirm the nature of β-arrestin bias GTPγS and ERK assays were also performed. […] Considering that the ERK is directly related to β-arrestin path and binds directly to the arrestin it was concluded that this compound is β-arrestin biased (Table 1 and FIGS. 3A and 3B). Finally, several other potential hits were identified but the activities were in a range of 25-35% at 100 μM concentration and they were discarded in this disclosure.
Current diversity data provide also several additional experimental evidences which are against colloid aggregation activity dependence: • Almost identical steep dose-response curves have been observed for the natural CCL19 and CCL21 agonists. Thus, it seems that this is not unique to Hit 1 case. • Hill coefficient of 1.5 in the ERK experiments and no steep slope (FIG. 3A). Moreover, the ERK dose-response curve looks like a typical single antagonist ligand. • At the same conditions as in the ERK assay the compound was in particular not active in the GTPγS assay up to 100 μM (FIG. 3B). […]

Test [2] concerns MB231cell line. Put plainly: Migration assay by MB231 cell line with CCL19/CCL21. As to conditions: 100 nM of CCL19/CCL21.
Description: For this purpose a model for the inhibition of CCL2 release from IL-4, IL-13, IL-22 and IFNγ-stimulated primary human keratinocytes (Eczematous inflammation) was used and also an assay for the inhibition of IL-8 release from IL-17A and TNFα (Psoriatic inflammation). […] Finally, migration assay by MB231cell line was performed.
The test system of test [3] is IL17 release. Put plainly: Inhibition of IL17 release (inflammation model). The note with it: Homo sapiens, read-out: EC50, IL17 release.

The compound `NC(=O)c1ccccc1Oc1ncnc2sc(-c3ccccc3)cc12` [Hit 1, 2-({6-phenylthieno[2,3-d]pyrimidin-4-yl}oxy)benzamide] displayed an antagonist activity in test [1] (GTPγS assay, highest concentration of 100 μM) of 16%. For the same compound, in test [1] (up to 100 μM), the “activity in GTPγS assay” value is “not active”. The “reduction of CCL19/CCL21-induced migration” value in test [2] came out at 10 folds. In test [2] (control 100%, CCL19/CCL21 200%), this compound yielded a migratory cells of 20%. Besides, the EC50 in test [3] is 3.78 µM.
